Patent US20240041854A1, “COLD MEDICINE AND ANTIVIRAL MEDICINE” (OTSUKA PHARMACEUTICAL FACTORY, INC., priority 2020, published 2024)
Where two headings read alike, the source gives them in different places.

Assays:
Assay type in all cases: cell-based
[1] = test system: human coronavirus HCoV-229E; parameters: unit not given here; details: MRC-5 cells, qPCR
[2] = test system: human coronavirus OC43 (ATCC VR1588); assay: Pharmacological Test 2: OC43 infection of HCT-8 host cells, virus RNA quantified by RT-qPCR; parameters: unit not given here; details: HCT-8 cells
Text: Compound X described above was used as the test compound. […] Comparative Compound 2 used herein was chloroquine phosphate, which has temporarily been approved by the US Food and Drug Administration (FDA) for emergency use in patients with new coronavirus infection.

[3] = test system: SARS-CoV-2 (hCoV-19/Germany/BY-ChVir-929/2020); assay: Pharmacological Test 3: SARS-CoV-2 infection of Vero E6 host cells, virus amount in culture supernatant by qPCR (Ct value); details: for Ct value (average value): Vero E6 cells, SARS-CoV-2, culture supernatant
Protocol: Compound X described above was used as the test compound. Vero E6 (ATCC CRL1586) was used as a host cell, and this was cultured on a 96-well plate until a monolayer sheet was obtained. Next, the medium was removed, 50 μL of a mixed suspension medium of SARS-CoV-2 (hCoV-19/Germany/BY-ChVir-929/2020) and a predetermined dose of the test compound was added, and the resultant was allowed to stand at 37° C. for 1 hour. The virus concentration was 150 PFU/well. Subsequently, the medium was removed, and the cells were washed with PBS. Then, a new medium mixed with the same dose of the test compound as before was added, and the cells were cultured at 37° C. overnight. After culturing, the virus amount in the culture supernatant was quantified by qPCR. As the primers and probe, the new coronavirus N1 protein-specific primers and probe specified by the Centers for Disease Control and Prevention (CDC) were used, and the conditions were also in accordance with the conditions specified by the CDC. The number of PCR cycles (Ct value) until the signal intensity of the PCR product reached a predetermined intensity (threshold value) was determined.

| SMILES | Virus amount ([1]; 1.6 μM test substance) | Virus amount ([1]; 3.1 μM test substance) | Virus amount ([1]; 6.3 μM test substance) | Virus amount ([1]; 12.5 μM test substance) | Virus amount ([1]; 25 μM test substance) | Virus amount ([1]; 50 μM test substance) | Virus amount ([2]; 0.78 μM test compound) | Virus amount ([2]; 1.58 μM test compound) | Virus amount ([2]; 3.1 μM test compound) | Virus amount ([2]; 6.3 μM test compound) | Virus amount ([2]; 12.5 μM test compound) | Virus amount ([2]; 25 μM test compound) | Virus amount ([2]; 50 μM test compound) | Virus amount ([1]; 0.78 μM test substance) | Virus amount ([1]; 1.58 μM test substance) | also measured |
| --- | --- | --- | --- | --- | --- | --- | --- | --- | --- | --- | --- | --- | --- | --- | --- | --- |
| NC(=O)c1nccnc1O [Comparative compound, 3-Hydroxypyrazine-2-carboxamide, reference compound] | 1.E+07 | 7.E+06 | 9.E+06 | 5.E+06 | 2.E+07 | 2.E+07 |  |  |  |  |  |  |  |  |  | Virus amount ([1]; 100 μM test substance): 2.E+07 |
| NC(=O)c1nc(F)c[nH]c1=O [compound 1, favipiravir] |  |  |  |  |  |  | 4.E+08 | 3.E+08 | 3.E+08 | 3.E+08 | 2.E+08 | 2.E+08 | 6.E+08 |  |  |  |
| COc1cc(OCc2ncc(C(F)(F)F)cc2F)ccc1-c1nc(-c2ccc(F)nc2)[nH]c1Br [Compound Y, 2-[[4-(5-bromo-2-(6-fluoropyridin-3-yl)-1H-imidazol-4-yl)-3-methoxyphenoxy]methyl]-3-fluoro-5-(trifluoromethyl)pyridine] | 1.E+08 | 1.E+08 |  | 8.E+07 | 4.E+04 | 3.E+04 |  |  |  |  |  |  |  | 2.E+08 |  | Virus amount ([1]; 6.2 μM test substance): 1.E+08 |
| Fc1ccc(-c2nc(-c3ccc(OCc4ncc(C(F)(F)F)cc4F)cc3Cl)c(Cl)[nH]2)cn1 [Compound Z, 2-[[3-chloro-4-(5-chloro-2-(6-fluoropyridin-3-yl)-1H-imidazol-4-yl)phenoxy]methyl]-3-fluoro-5-(trifluoromethyl)pyridine] |  | 3.E+08 | 3.E+08 | 8.E+07 | 2.E+05 | 4.E+04 |  |  |  |  |  |  |  | 3.E+08 | 1.E+08 |  |
| CCN(CC)CCCC(C)Nc1ccnc2cc(Cl)ccc12 (stereo not drawn) [compound 2, chloroquine phosphate] |  |  |  |  |  |  | 2.E+08 | 3.E+08 | 4.E+08 | 6.E+08 | 6.E+07 | 3.E+06 | 9.E+06 |  |  |  |
| COc1cc(OCc2ncc(C(F)(F)F)cc2F)ccc1-c1nc(-c2ccc(F)nc2)[nH]c1Cl [Compound X, 2-[[4-(5-chloro-2-(6-fluoropyridin-3-yl)-1H-imidazol-4-yl)-3-methoxyphenoxy]methyl]-3-fluoro-5-(trifluoromethyl) pyridine] |  | 5.E+06 | 5.E+06 | 1.E+06 | 4.E+02 | 3.E+03 | 3.E+08 |  | 6.E+08 |  | 2.E+05 | 1.E+05 | 1.E+05 | 9.E+06 | 1.E+07 | Ct value (average value) ([3]; 0.78 μM test compound): 21.0; Ct value (average value) ([3]; 1.56 μM test compound): 21.1; Ct value (average value) ([3]; 3.13 μM test compound): 20.9; Ct value (average value) ([3]; 6.25 μM test compound): 21.7; Ct value (average value) ([3]; 12.50 μM test compound): 24.7; Ct value (average value) ([3]; 25.00 μM test compound): 24.8; Ct value (average value) ([3]; 50.00 μM test compound): 24.5; infection-suppressing effect on SARS-CoV-2 ([3]; in words, Vero E6): showed an infection-suppressing effect on SARS-CoV-2; Virus amount ([2]; 1.6 μM test compound): 5.E+08; Virus amount ([2]; 6.2 μM test compound): 1.E+08 |
